# Results published in patent US11344533B2, “Autotaxin inhibitor compounds” (Sabre Therapeutics LLC, priority 2013, dated 2022).
# Tested on: dog
# Assay: dog liver toxicity study
# Details: dog liver toxicity study; liver markers ALT, AST, AlkP and bilirubin
# Description: In some embodiments, liver toxicity can be assessed in suitable in vivo assays. In some embodiments, liver toxicity is assessed by monitoring any increases in the levels of liver markers ALT, AST, AlkP and bilirubin.
row,Compound,liver markers
1,"CCCn1cc(-n2c(Cl)c(Sc3cccc(C(=O)O)c3F)c3ccc(Cl)c(F)c32)cn1 [Compound 1-13, 3-((2,6-dichloro-7-fluoro-1-(1-propyl-1H-pyrazol-4-yl)-1H-indol-3-yl)thio)-2-fluorobenzoic acid]",did not exhibit the same effects

# Same assay, conditions: dosed at 100 mpk for 5 days
row,Compound,"increases in liver markers ALT, AST, AlkP and bilirubin"
1,"CCCn1cc(-n2c(Cl)c(Sc3cccc(C(=O)O)c3F)c3ccc(Cl)c(F)c32)cn1 [Compound 1-13, 3-((2,6-dichloro-7-fluoro-1-(1-propyl-1H-pyrazol-4-yl)-1H-indol-3-yl)thio)-2-fluorobenzoic acid]","no increases in liver markers ALT, AST, AlkP and bilirubin were observed"

# Biological target: human autotaxin (Homo sapiens (Human), UniProt Q13822)
# Assay: Human Autotaxin Assay (choline release from LPC, Hep3B conditioned media)
# Assay type: biochemical
# Details: ATX activity in concentrated conditioned media from Hep3B cells, substrate LPC
row,Compound,IC50
1,"3-((6-chloro-2-cyclopropyl-1-(1-(6-(3-(3′,6′-dihydroxy-3-oxo-3H-spiro[isobenzofuran-1,9′-xanthen]-5-yl)ureido)hexyl)-1H-pyrazol-4-yl)-7-fluoro-1H-indol-3-yl)thio)-2-fluorobenzoic acid [Compound 1-131]",< 500 nM
2,"CCCn1cc(-n2c(Cl)c(Sc3cccc(C(=O)O)c3)c3ccc(Cl)cc32)cn1 [Compound 1-1, 3-((2,6-dichloro-1-(1-propyl-1H-pyrazol-4-yl)-1H-indol-3-yl)thio)benzoic acid]",< 500 nM
3,"CCCn1cc(-n2c(C#N)c(Sc3cccc(C(=O)O)c3)c3ccc(Cl)cc32)cn1 [Compound 1-3, 3-((6-chloro-2-cyano-1-(1-propyl-1H-pyrazol-4-yl)-1H-indol-3-yl)thio)benzoic acid]",< 500 nM
4,"CCCn1cc(-n2c(C3CC3)c(Sc3cccc(C(=O)O)c3)c3ccc(Cl)cc32)cn1 [Compound 1-4, 3-((6-chloro-2-cyclopropyl-1-(1-propyl-1H-pyrazol-4-yl)-1H-indol-3-yl)thio)benzoic acid]",< 500 nM
5,"CCCn1cc(-n2c(Cl)c(Sc3cccc(C(=O)O)c3)c3ccc(Cl)c(F)c32)cn1 [Compound 1-7, 3-((2,6-dichloro-7-fluoro-1-(1-propyl-1H-pyrazol-4-yl)-1H-indol-3-yl)thio)benzoic acid]",< 500 nM
6,"CCCn1cc(-n2c(C3CC3)c(Sc3cccc(C(=O)O)c3)c3ccc(Cl)c(F)c32)cn1 [Compound 1-10, 3-((6-chloro-2-cyclopropyl-7-fluoro-1-(1-propyl-1H-pyrazol-4-yl)-1H-indol-3-yl)thio)benzoic acid]",< 500 nM
7,"CCCn1cc(-n2c(C3CC3)c(Sc3cccc(C(=O)O)c3F)c3ccc(Cl)c(F)c32)cn1 [Compound 1-16, 3-((6-chloro-2-cyclopropyl-7-fluoro-1-(1-propyl-1H-pyrazol-4-yl)-1H-indol-3-yl)thio)-2-fluorobenzoic acid]",< 500 nM
8,"CCn1cc(-n2c(Cl)c(Sc3cccc(C(=O)O)c3F)c3ccc(Cl)c(F)c32)cn1 [Compound 1-31, 3-((2,6-dichloro-1-(1-ethyl-1H-pyrazol-4-yl)-7-fluoro-1H-indol-3-yl)thio)-2-fluorobenzoic acid]",< 500 nM
9,"Cn1cc(-n2c(Cl)c(Sc3cccc(C(=O)O)c3F)c3ccc(Cl)c(F)c32)cn1 [Compound 1-49, 3-((2,6-dichloro-7-fluoro-1-(1-methyl-1H-pyrazol-4-yl)-1H-indol-3-yl)thio)-2-fluorobenzoic acid]",< 500 nM
10,"CCn1cc(-n2c(C3CC3)c(Sc3cccc(C(=O)O)n3)c3ccc(Cl)c(F)c32)cn1 [Compound 1-92, 6((6-chloro-2-cyclopropyl-1-(1-ethyl-1H-pyrazol-4-yl)-7-fluoro-1H-indol-3-yl)thio)picolinic acid]",< 500 nM
11,"O=C(O)c1cccc(Sc2c(C3CC3)n(-c3cn[nH]c3)c3c(F)c(Cl)ccc23)c1F [Compound 1-119, 3-((6-chloro-2-cyclopropyl-7-fluoro-1-(1H-pyrazol-4-yl)-1H-indol-3-yl)thio)-2-fluorobenzoic acid]",< 500 nM
12,"O=C(O)c1cccc(Sc2c(C3CC3)n(-c3cnn(CCO)c3)c3c(F)c(Cl)ccc23)c1F [Compound 1-120, 3-((6-chloro-2-cyclopropyl-7-fluoro-1-(1-(2-hydroxyethyl)-1H-pyrazol-4-yl)-1H-indol-3-yl)thio)-2-fluorobenzoic acid]",< 500 nM
13,"NC(=O)OCCn1cc(-n2c(C3CC3)c(Sc3cccc(C(=O)O)c3F)c3ccc(Cl)c(F)c32)cn1 [Compound 1-121, 3-(1-(1-(2-(carbamoyloxy)ethyl)-1H-pyrazol-4-yl)-(6-chloro-2-cyclopropyl-7-fluoro-1H-indol-3-yl)thio)-2-fluorobenzoic acid]",< 500 nM
14,"NCCn1cc(-n2c(C3CC3)c(Sc3cccc(C(=O)O)c3F)c3ccc(Cl)c(F)c32)cn1 [Compound 1-122, 3-(1-(1-(2-aminoethyl)-1H-pyrazol-4-yl)-(6-chloro-2-cyclopropyl-7-fluoro-1H-indol-3-yl)thio)-2-fluorobenzoic acid]",< 500 nM
15,"NC(=O)NCCn1cc(-n2c(C3CC3)c(Sc3cccc(C(=O)O)c3F)c3ccc(Cl)c(F)c32)cn1 [Compound 1-123, 3-((6-chloro-2-cyclopropyl-7-fluoro-1-(1-(2-ureidoethyl)-1H-pyrazol-4-yl)-1H-indol-3-yl)thio)-2-fluorobenzoic acid]",< 500 nM
16,"O=C(O)CCCn1cc(-n2c(C3CC3)c(Sc3cccc(C(=O)O)c3F)c3ccc(Cl)c(F)c32)cn1 [Compound 1-124, 3-(1-(1-(3-carboxypropyl)-1H-pyrazol-4-yl)-(6-chloro-2-cyclopropyl-7-fluoro-1H-indol-3-yl)thio)-2-fluorobenzoic acid]",< 500 nM
17,"NC(=O)CCCn1cc(-n2c(C3CC3)c(Sc3cccc(C(=O)O)c3F)c3ccc(Cl)c(F)c32)cn1 [Compound 1-125, 3-(1-(1-(4-amino-4-oxobutyl)-1H-pyrazol-4-yl)-(6-chloro-2-cyclopropyl-7-fluoro-1H-indol-3-yl)thio)-2-fluorobenzoic acid]",< 500 nM
18,"O=C(O)c1cccc(Sc2c(C3CC3)n(-c3cnn(CC(F)(F)F)c3)c3c(F)c(Cl)ccc23)c1F [Compound 1-126, 3-((6-chloro-2-cyclopropyl-7-fluoro-1-(1-(2,2,2-trifluoroethyl)-1H-pyrazol-4-yl)-1H-indol-3-yl)thio)-2-fluorobenzoic acid]",< 500 nM
19,"NCCCCCCn1cc(-n2c(C3CC3)c(Sc3cccc(C(=O)O)c3F)c3ccc(Cl)c(F)c32)cn1 [Compound 1-128, 3-(1-(1-(6-aminohexyl)-1H-pyrazol-4-yl)-(6-chloro-2-cyclopropyl-7-fluoro-1H-indol-3-yl)thio)-2-fluorobenzoic acid]",< 500 nM
20,"O=C(O)c1cccc(Sc2c(Cl)n(-c3cccnc3)c3c(F)c(Cl)ccc23)c1F [Compound 2-1, 3-((2,6-dichloro-7-fluoro-1-(pyridin-3-yl)-1H-indol-3-yl)thio)-2-fluorobenzoic acid]",< 500 nM
21,"O=C(O)c1cccc(Sc2c(Br)n(-c3cccnc3)c3c(F)c(Cl)ccc23)c1F [Compound 2-2, 3-((2-bromo-6-chloro-7-fluoro-1-(pyridin-3-yl)-1H-indol-3-yl)thio)-2-fluorobenzoic acid]",< 500 nM
22,"O=C(O)c1cccc(Sc2c(C3CC3)n(-c3cccnc3)c3c(F)c(Cl)ccc23)c1F [Compound 2-3, 3-((6-chloro-2-cyclopropyl-7-fluoro-1-(pyridin-3-yl)-1H-indol-3-yl)thio)-2-fluorobenzoic acid]",< 500 nM
23,"CCn1cc(-n2c(C3CC3)c(Sc3cccc(CC(=O)O)c3F)c3ccc(Cl)c(F)c32)cn1 [Compound 2-7, 2-(3-((6-chloro-2-cyclopropyl-1-(1-ethyl-1H-pyrazol-4-yl)-7-fluoro-1H-indol-3-yl)thio)-2-fluorophenyl)acetic acid]",< 500 nM
